Assay results taken from US7935703B2, “Piperazines and piperidines as Mglur5 potentiators” (AstraZeneca AB, priority 2006, dated 2011).

Target: T1, human mGluR5d (Homo sapiens, UniProt P41594)
T1 construct: expressed in transfected cells; host or cells: GHEK cells (human embryonic kidney cells expressing glutamate transporter), stated for the IP3 assay
Test: functional assays for mGluR5 potentiation: [Ca2+]i mobilization (FLIPR), secondary IP3 turnover assay
Format: cell-based
Details: active in assays described herein; which assay (FLIPR or IP3) is not stated
Excerpt: The pharmacological properties of the compounds of the invention can be analyzed using standard assays for functional activity. Examples of glutamate receptor assays are well known in the art as described in for example Aramori et al., Neuron 8:757 (1992), Tanabe et al., Neuron 8:169 (1992), Miller et al., J Neuroscience 15: 6103 (1995), Balazs, et al., J. Neurochemistry 69:151 (1997). The methodology described in these publications is incorporated herein by reference. Conveniently, the compounds of the invention can be studied by means of an assay that measures the mobilization of intracellular calcium, [Ca^2+]i in cells expressing mGluR5.
Intracellular calcium mobilization was measured by detecting changes in fluorescence of cells loaded with the fluorescent indicator fluo-3. Fluorescent signals were measured using the FLIPR system (Molecular Devices). A two addition experiment was used that could detect compounds that either activate or antagonize the receptor.
For FLIPR analysis, cells expressing human mGluR5d were seeded on collagen coated clear bottom 96-well plates with black sides and analysis of [Ca^2+]i mobilization was done 24 hours after seeding.
FLIPR experiments were performed using a laser setting of 0.800 W and a 0.4 second CCD camera shutter speed. Each FLIPR experiment was initiated with 160 μL of buffer present in each well of the cell plate. After each addition of the compound, the fluorescence signal was sampled 50 times at 1 second intervals followed by 3 samples at 5 second intervals. Responses were measured as the peak height of the response within the sample period.
EC50 and IC50 determinations were made from data obtained from 8-point concentration response curves (CRC) performed in duplicate. Agonist CRC were generated by scaling all responses to the maximal response observed for the plate. Antagonist block of the agonist challenge was normalized to the average response of the agonist challenge in 14 control wells on the same plate.
We have validated a secondary functional assay for mGluR5d based on Inositol Phosphate (IP3) turnover. IP3 accumulation is measured as an index of receptor mediated phospholipase C turnover. GHEK cells stably expressing the human mGluR5d receptors were incubated with [3H] myo-inositol overnight, washed three times in HEPES buffered saline and pre-incubated for 10 minutes with 10 mM LiCl. Compounds (agonists) were added and incubated for 30 minutes at 37° C. Antagonist and potentiator activity was determined by pre-incubating test compounds for 15 minutes, then incubating in the presence of glutamate or DHPG (EC80 for antagonists, EC30 for potentiators) for 30 minutes. Reactions were terminated by the addition of perchloric acid (5%). […]

T1 sequence (P41594 21-942 isoform P41594-3 limits assumed): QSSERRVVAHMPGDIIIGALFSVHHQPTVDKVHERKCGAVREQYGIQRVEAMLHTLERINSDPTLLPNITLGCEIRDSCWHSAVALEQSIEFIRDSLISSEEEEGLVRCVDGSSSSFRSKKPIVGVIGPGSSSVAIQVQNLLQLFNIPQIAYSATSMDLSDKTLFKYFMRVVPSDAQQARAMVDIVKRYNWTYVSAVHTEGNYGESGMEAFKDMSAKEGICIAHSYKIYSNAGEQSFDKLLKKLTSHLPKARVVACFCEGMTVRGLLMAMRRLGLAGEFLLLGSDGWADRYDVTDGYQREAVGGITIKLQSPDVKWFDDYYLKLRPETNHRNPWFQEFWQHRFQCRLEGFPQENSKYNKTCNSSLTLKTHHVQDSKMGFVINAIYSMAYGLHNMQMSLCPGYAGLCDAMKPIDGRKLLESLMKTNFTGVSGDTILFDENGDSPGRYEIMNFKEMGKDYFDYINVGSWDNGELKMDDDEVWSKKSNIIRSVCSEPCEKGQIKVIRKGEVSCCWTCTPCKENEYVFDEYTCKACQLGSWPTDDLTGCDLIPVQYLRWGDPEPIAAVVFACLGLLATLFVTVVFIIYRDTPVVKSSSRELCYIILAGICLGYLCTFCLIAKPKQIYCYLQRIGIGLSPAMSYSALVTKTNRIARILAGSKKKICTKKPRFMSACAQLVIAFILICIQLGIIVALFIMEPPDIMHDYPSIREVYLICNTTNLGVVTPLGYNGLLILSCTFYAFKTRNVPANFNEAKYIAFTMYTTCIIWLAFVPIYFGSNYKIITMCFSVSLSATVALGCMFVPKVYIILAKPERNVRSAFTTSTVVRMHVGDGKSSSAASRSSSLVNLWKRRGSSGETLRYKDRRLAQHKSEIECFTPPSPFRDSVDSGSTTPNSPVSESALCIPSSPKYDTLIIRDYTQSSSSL

Row | EC50 [nM] | SMILES
1 | 5100 | N#Cc1cccnc1N1CCN(C(=O)COCc2ccccc2)CC1 [Compound 23, 2-[4-(2-Benzyloxy-acetyl)-piperazin-1-yl]-nicotinonitrile]
2 | 400 | O=C(COCc1ccc(F)cc1)N1CCN(c2ccc(F)cc2F)CC1 [Compound 48, 1-[4-(2,4-Difluoro-phenyl)-piperazin-1-yl]-2-(4-fluoro-benzyloxy)-ethanone]
3 | 2300 | C[C@@H]1CN(c2ccc(Cl)cc2Cl)CCN1C(=O)COCc1ccncc1 [Compound 58, 1-[(R)-4-(2,4-Dichloro-phenyl)-2-methyl-piperazin-1-yl]-2-(pyridin-4-ylmethoxy)-ethanone]
4 | 600 | O=C(COCc1ccccc1)N1CCN(c2ccccc2)CC1 [Compound 12, 2-Benzyloxy-1-(4-phenyl-piperazin-1-yl)-ethanone]
